8 compounds from patent publication US12065442B2, “Tropomyosin receptor kinase (TRK) degradation compounds and methods of use” (Cullgen (Shanghai), Inc., priority 2018, dated 2024) can be followed below.

Series [1] can be described thus: Mouse pharmacokinetic (PK) studies. In kind it is in vivo. Conditions: single 20 mg/kg intraperitoneal injection, mice, over 12 hours (FIG. 11); 20 mg/kg. The protocol: To investigate the pharmacokinetics of bi-functional compounds, exemplified by TR-123, a single 20 mg/kg intraperitoneal injection was evaluated. […] Additionally, doses of 2 mg/kg TR-198 via intravenous injection and 20 mg/kg TR-198 via oral gavage were evaluated in mice.
A single 20 mg/kg intraperitoneal injection of compound TR-123 was evaluated. Plasma concentrations of TR-123 reported at each of the 6 time points (30 min, 1 h, 2 h, 4 h, 8 h, and 12 h post compound administration) are the average values from 3 test animals.
A single 2 mg/kg intravenous injection and 20 mg/kg oral gavage of TR-198 were evaluated in mice.
Plasma concentrations of TR-198 reported at each of the 6 time points (5 min, 30 min, 2 h, 4 h, 8 h, and 12 h post compound administration via IV, 30 min, 1 h, 2 h, 4 h, 8 h, and 12 h post compound administration via p.o.) are the average values from 3 test animals.
Standard PK studies were conducted using male Swiss Albino mice by Sai Life Sciences. A single 20 mg/kg intraperitoneal (IP) injection of compound TR-123 was evaluated. Plasma concentrations of TR-123 reported at each of the 6 time points (30 min, 1 h, 2 h, 4 h, 8 h, and 12 h post dosing) are the average values from 3 test animals. Error bars represent+SD.

The target in a further series is T1, wild type TRKA protein (Homo sapiens, UniProt P04629).
T1 construct: immunoblot of wild type TRKA protein expressed by HEL cells; endogenous in cells; host or cells: HEL cells
T1 sequence (P04629 33-796): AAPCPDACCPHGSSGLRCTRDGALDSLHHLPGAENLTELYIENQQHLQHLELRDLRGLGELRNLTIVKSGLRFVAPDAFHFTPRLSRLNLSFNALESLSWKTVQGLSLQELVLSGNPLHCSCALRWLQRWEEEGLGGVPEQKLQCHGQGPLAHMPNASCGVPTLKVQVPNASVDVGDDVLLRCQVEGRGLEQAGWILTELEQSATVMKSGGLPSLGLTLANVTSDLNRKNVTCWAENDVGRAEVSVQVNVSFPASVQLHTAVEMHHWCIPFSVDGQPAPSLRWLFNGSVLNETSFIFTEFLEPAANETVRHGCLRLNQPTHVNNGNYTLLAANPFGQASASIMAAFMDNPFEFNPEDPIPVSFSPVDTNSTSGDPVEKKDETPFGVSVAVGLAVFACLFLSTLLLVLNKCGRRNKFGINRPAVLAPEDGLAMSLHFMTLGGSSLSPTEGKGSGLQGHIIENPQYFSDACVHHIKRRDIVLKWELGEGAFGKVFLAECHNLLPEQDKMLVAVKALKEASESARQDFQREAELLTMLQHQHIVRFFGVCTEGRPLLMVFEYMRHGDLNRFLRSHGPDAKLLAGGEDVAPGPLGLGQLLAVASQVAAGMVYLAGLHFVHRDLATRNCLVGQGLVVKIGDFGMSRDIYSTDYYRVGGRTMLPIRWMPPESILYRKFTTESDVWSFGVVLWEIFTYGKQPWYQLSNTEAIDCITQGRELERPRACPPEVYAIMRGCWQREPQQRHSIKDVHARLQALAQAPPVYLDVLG
The experiment in a line: Immunoblotting of wild type TRKA protein in HEL cells. In kind it is cell-based. Conditions: for TRKA protein levels: dose range (FIG. 8B). On the procedure: (§1) KM12 or HEL cells were treated with a dose range of compound TR-123 or TR-123-negative. The latter lost binding to cereblon (CRBN) due to a chemical modification.
KM12 or HEL cells were treated with a single dose of compound TR-123 or combination with MG-132, Bortezomib, MLN4924 or Pomalidomide.
(§2) Cultured cells were washed with cold PBS once and lysed in cold RIPA buffer supplemented with protease inhibitors and phosphatase inhibitors (Beyotime Biotechnology). The solutions were then incubated at 4° C. for 30 minutes with gentle agitation to fully lyse cells. For tumor tissues, tumors were cut into small pieces, milled with cold RIPA buffer using a mechanical homogenizer and lysed for 1 hour at 4° C. Cell lysates were centrifuged at 13,000 rpm for 10 minutes at 4° C. and pellets were discarded. Total protein concentrations in the lysates were determined by BCA assays (Beyotime Biotechnology). Cell lysates were mixed with Laemmli loading buffer to 1× and heated at 99° C. for 5 min. Proteins were resolved on SDS-PAGE and visualized by chemiluminescence. Images were taken by a ChemiDoc MP Imaging system (Bio-Rad). Protein bands were quantitated using the software provided by Bio-Rad.

The target in series [2] is T2, TPM3-TRKA fusion protein (Homo sapiens, UniProt P04629+P06753+Q96SW2). The experiment in a line: Immunoblotting of TPM3-TRKA fusion protein in KM12 cells. The series is classed as cell-based. Also on record: The resulted chimeric proteins always retain the kinase domain of TRK proteins; TPM3 (N-terminal fusion partner, natural gene fusion); endogenous in cells; host or cells: KM12 colon cancer cells. As to conditions: for TRKA protein levels: dose range (FIG. 8A). The protocol: Specific exemplary bivalent compounds were characterized in KM12 cells. […] Cells were collected, lysed and subject to immunoblotting using an antibody specific to TRK proteins. GAPDH was included as the loading control. DMSO was used as the negative control.
T2 sequence (P06753+P04629 fused): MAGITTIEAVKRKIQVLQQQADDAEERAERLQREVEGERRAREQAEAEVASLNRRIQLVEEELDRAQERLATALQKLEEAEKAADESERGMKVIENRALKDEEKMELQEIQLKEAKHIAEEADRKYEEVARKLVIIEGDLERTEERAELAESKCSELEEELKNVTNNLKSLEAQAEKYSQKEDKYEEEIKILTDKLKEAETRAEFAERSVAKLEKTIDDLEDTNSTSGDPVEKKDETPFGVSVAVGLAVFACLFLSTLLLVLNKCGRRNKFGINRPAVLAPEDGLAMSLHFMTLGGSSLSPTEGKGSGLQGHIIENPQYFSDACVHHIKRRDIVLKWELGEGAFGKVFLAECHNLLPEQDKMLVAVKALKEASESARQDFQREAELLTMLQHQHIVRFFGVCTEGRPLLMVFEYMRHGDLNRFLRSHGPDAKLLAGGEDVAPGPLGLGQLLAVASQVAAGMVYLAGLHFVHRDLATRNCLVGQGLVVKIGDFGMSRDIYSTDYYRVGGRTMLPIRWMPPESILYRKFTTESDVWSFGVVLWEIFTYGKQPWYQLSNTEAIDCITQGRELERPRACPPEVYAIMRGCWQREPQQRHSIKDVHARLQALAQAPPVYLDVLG
T2 sequence (Q96SW2 whole entry, the tested form may be a part): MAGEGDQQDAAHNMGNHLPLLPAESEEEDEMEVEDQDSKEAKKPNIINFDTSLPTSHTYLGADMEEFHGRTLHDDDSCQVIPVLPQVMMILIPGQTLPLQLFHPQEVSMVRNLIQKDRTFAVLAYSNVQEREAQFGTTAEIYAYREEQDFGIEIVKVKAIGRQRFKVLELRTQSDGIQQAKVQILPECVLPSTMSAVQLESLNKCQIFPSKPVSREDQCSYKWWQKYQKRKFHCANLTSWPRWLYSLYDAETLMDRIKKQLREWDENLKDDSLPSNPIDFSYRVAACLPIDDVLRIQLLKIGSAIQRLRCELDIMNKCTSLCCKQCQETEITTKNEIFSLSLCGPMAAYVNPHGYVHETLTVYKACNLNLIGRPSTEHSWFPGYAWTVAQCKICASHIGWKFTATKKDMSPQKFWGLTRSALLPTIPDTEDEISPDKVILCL
T2 sequence (Q16531 whole entry partner, the tested form may be a part): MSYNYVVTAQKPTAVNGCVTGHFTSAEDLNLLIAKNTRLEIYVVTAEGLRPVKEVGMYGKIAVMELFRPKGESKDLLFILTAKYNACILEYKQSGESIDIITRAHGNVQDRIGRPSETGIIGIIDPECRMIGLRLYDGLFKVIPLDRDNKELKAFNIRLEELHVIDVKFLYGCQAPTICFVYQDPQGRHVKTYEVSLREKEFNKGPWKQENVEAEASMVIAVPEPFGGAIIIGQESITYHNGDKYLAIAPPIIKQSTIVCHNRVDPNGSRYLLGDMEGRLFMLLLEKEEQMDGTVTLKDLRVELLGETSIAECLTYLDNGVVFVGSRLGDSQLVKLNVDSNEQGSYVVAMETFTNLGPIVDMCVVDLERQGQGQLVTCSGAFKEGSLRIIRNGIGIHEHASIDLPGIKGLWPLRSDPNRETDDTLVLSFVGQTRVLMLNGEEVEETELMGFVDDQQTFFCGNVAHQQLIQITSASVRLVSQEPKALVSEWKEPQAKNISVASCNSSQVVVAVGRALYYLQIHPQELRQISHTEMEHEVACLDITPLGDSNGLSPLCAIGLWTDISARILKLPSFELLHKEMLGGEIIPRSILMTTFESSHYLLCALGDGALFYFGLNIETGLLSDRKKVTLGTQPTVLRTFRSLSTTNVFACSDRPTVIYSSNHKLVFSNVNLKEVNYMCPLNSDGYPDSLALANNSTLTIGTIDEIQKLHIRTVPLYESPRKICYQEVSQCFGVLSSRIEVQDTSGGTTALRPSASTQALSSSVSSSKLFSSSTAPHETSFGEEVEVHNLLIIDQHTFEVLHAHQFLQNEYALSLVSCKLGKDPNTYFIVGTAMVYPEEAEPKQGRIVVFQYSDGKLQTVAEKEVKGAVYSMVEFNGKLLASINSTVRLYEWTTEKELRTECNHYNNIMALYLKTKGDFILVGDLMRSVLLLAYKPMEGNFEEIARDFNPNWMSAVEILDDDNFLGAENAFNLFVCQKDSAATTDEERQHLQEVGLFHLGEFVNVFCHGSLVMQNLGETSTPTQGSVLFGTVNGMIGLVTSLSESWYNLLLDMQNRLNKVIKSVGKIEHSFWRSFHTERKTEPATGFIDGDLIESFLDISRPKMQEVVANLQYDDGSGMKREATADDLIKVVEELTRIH
KM12 cells were treated with DMSO or indicated compounds at 100 nM for 16 hours.
KM12 cells were treated with CPD-027, CPD-053, and CPD-060 at 100 nM for indicated incubation time. […]
as §1
KM12 or HEL cells were treated with a single dose of compound TR-123 or combination with MG-132, Bortezomib, MLN4924 or Pomalidomide. […]
as §2

Series [3] deals with T2, TPM3-TRKA fusion protein. The experiment in a line: Immunoblotting of TPM3-TRKA in KM12 subcutaneous xenograft tumors. The series is classed as in vivo, Athymic nude mice. Also on record: The resulted chimeric proteins always retain the kinase domain of TRK proteins; TPM3 (N-terminal fusion partner, natural gene fusion); from tissue; host or cells: KM12 subcutaneous xenograft tumors in athymic nude mice. As to conditions: for TPM3-TRKA degradation in KM12 subcutaneous tumors: intraperitoneal or oral administration, eight hours after administration (FIG. 10). The protocol:
In addition to cultured cells, athymic nude mice bearing KM12 subcutaneous xenograft tumors at the right flank were intraperitoneally treated with 10, 20, or 50 mg/kg CPD-053, CPD-027, or CPD-060. Four hours after drug administration, animals were sacrificed for immunoblotting of TPM3-TPKA in homogenized xenograft tumor masses. The label “a” or “b” represents two different samples of the same xenograft tumor.
Athymic nude mice bearing KM12 subcutaneous xenograft tumors at the right flank were intraperitoneally treated with 10, 20, or 50 mg/kg CPD-053, CPD-027, or CPD-060, as indicated in FIG. 3. Four hours after drug administration, animals were sacrificed for immunoblotting of TPM3-TPKA in homogenized xenograft tumor chunks. The label “a” or “b” represents two different chunks of the same xenograft tumor.
Athymic nude mice bearing KM12 subcutaneous xenograft tumors at the right flank were intraperitoneally or orally treated with bivalent compounds at indicated dose. Eight hours after drug administration, animals were sacrificed for immunoblotting of TPM3-TPKA in homogenized xenograft tumor samples.
as §2
All animal experiments were performed under protocols approved by the Institutional Animal Care and Use Committee (IACUC) of Cullgen. Athymic nude mice (male, 5-weeks old) received 5 million KM12 cells subcutaneously inoculated at the right flank site. Ten days following inoculation, tumors were approximately 500 mm3 in size. Tumor-bearing mice were treated intraperitoneally with vehicle or bivalent compounds at indicated doses. Tumor sizes and body weight of mice were measured every 2 days. In addition, immunoblotting assays were employed to assess the levels of TRKA fusion proteins in xenograft tumors around 500 mm^3 in size following drug administration. At indicated hours after drug administration, selected mice were sacrificed, tumors were resected. Small chunks of tumors were homogenized for immunoblotting of TPM3-TPKA and other proteins as indicated.

The test system of another series is KM12 cells. The experiment in a line: Cell viability assay (CellTiter-Glo) in KM12 cells. In kind it is cell-based. As to conditions: Homo sapiens, 72 h, KM12 cell viability, CellTiter-Glo, 3 days, read-out: IC50.

Entries after “also recorded” stand apart in the source; their conditions may differ. Like-named read-outs stand apart in the source and are kept apart here.

As for `O=C1CCC(N2C(=O)c3ccc(NCC(=O)N4CCN(c5cccc(-c6cnc7ccc(N8CCC[C@@H]8c8cccc(F)c8)nn67)n5)CC4)cc3C2=O)C(=O)N1` (some centres unmarked) [TR123], the plasma exposure result in series [1] is on record as “good plasma exposure”.
As for `CN1C(=O)CCC(N2C(=O)c3ccc(NCC(=O)N4CCN(c5cccc(-c6cnc7ccc(N8CCC[C@@H]8c8cccc(F)c8)nn67)n5)CC4)cc3C2=O)C1=O` (stereo partly drawn) [TR-123-negative, 5-((2-(4-(6-(6-((R)-2-(3-Fluorophenyl)pyrrolidin-1-yl)imidazo[1,2-b]pyridazin-3-yl)pyridin-2-yl)piperazin-1-yl)-2-oxoethyl)amino)-2-(1-methyl-2,6-dioxopiperidin-3-yl)isoindoline-1,3-dione], the TRKA protein levels entry on wild type TRKA protein and at TPM3-TRKA fusion protein [2] was “none or less effects on TRKA protein levels” in each case.
On to `O=C1CCC(N2C(=O)c3cccc(NCCOCCC(=O)N4CCN(c5cccc(-c6cnc7ccc(N8CCC[C@@H]8c8cccc(F)c8)nn67)n5)CC4)c3C2=O)C(=O)N1` (stereo partly drawn) [CPD-027, 2-(2,6-Dioxopiperidin-3-yl)-4-((2-(3-(4-(6-(6-((R)-2-(3-fluorophenyl)pyrrolidin-1-yl)imidazo[1,2-b]pyridazin-3-yl)pyridin-2-yl)piperazin-1-yl)-3-oxopropoxy)ethyl)amino)isoindoline-1,3-dione], for which the “TPM3-TRKA protein levels in KM12 subcutaneous xenograft tumors” value on TPM3-TRKA fusion protein [3] (10, 20, or 50 mg/kg intraperitoneally, single dose, four hours after administration (FIG. 3)) is listed as “significantly reducing TPM3-TRKA protein levels”. Besides, at TPM3-TRKA fusion protein [2] (100 nM (FIG. 2)), the “time after adding compound at which significant degradation of TPM3-TRKA was detected” value was 15 min. For the same compound, the TPM3-TRKA protein levels result on TPM3-TRKA fusion protein [2] (100 nM, 16 hours (FIG. 1A-1C)) is given as “particularly effective in reducing TPM3-TRKA protein levels”. In addition, the “TPM3-TRKA protein levels, time course” value at TPM3-TRKA fusion protein [2] (100 nM, indicated incubation time (FIG. 2)) is listed as “rapidly reduced TPM3-TRKA protein levels”. For the same compound, in the series with KM12 cells (Table 2), the concentration for half-maximal inhibition (IC50) turned out to be 4.9 nM.
For the compound `O=C1CCC(N2C(=O)c3ccc(NCCOCCOCCN4CCN(c5cccc(-c6cnc7ccc(N8CCC[C@H]8c8cccc(F)c8)nn67)n5)CC4)cc3C2=O)C(=O)N1` (stereo partly drawn) [TR-177, 2-(2,6-Dioxopiperidin-3-yl)-5-((2-(2-(2-(4-(6-(6-((S)-2-(3-fluorophenyl)pyrrolidin-1-yl)imidazo[1,2-b]pyridazin-3-yl)pyridin-2-yl)piperazin-1-yl)ethoxy)ethoxy)ethyl)amino)isoindoline-1,3-dione], at TPM3-TRKA fusion protein [3], the “TPM3-TRKA degradation in KM12 subcutaneous tumors” value (shortened to “TPM3-TRKA degradation”) is “exhibited the activities to induce TPM3-TRKA degradation”. In addition, in the series with KM12 cells (Table 3), the IC50 was found to be 1.9 nM.
As to `O=C1CCC(N2C(=O)c3ccc(CCCN4CCN(c5cccc(-c6cnc7ccc(N8CCC[C@@H]8c8cccc(F)c8)nn67)n5)CC4)cc3C2=O)C(=O)N1` (stereo partly drawn) [TR-172, 2-(2,6-dioxopiperidin-3-yl)-5-(3-(4-(6-(6-((R)-2-(3-fluorophenyl)pyrrolidin-1-yl)imidazo[1,2-b]pyridazin-3-yl)pyridin-2-yl)piperazin-1-yl)propyl)isoindoline-1,3-dione], the “TPM3-TRKA degradation” value on TPM3-TRKA fusion protein [3] is recorded as “exhibited the activities to induce TPM3-TRKA degradation”. The concentration for half-maximal inhibition (IC50) in the series on KM12 cells (Table 3) was 2 nM.
With `O=C1CCC(N2C(=O)c3ccc(NCCCN4CCN(c5cccc(-c6cnc7ccc(N8CCC[C@@H]8c8cccc(F)c8)nn67)n5)CC4)cc3C2=O)C(=O)N1` (stereo partly drawn) [TR-171, 2-(2,6-Dioxopiperidin-3-yl)-5-((3-(4-(6-(6-((R)-2-(3-fluorophenyl)pyrrolidin-1-yl)imidazo[1,2-b]pyridazin-3-yl)pyridin-2-yl)piperazin-1-yl)propyl)amino)isoindoline-1,3-dione], on TPM3-TRKA fusion protein [3], the “TPM3-TRKA degradation” value is on record as “exhibited the activities to induce TPM3-TRKA degradation”. The IC50 with KM12 cells (Table 3) is 5.2 nM.
For `O=C1CCC(N2C(=O)c3ccc(OCCN4CCN(c5cccc(-c6cnc7ccc(N8CCC[C@@H]8c8cccc(F)c8)nn67)n5)CC4)cc3C2=O)C(=O)N1` (stereo partly drawn) [TR-173, 2-(2,6-dioxopiperidin-3-yl)-5-(2-(4-(6-(6-((R)-2-(3-fluorophenyl)pyrrolidin-1-yl)imidazo[1,2-b]pyridazin-3-yl)pyridin-2-yl)piperazin-1-yl)ethoxy)isoindoline-1,3-dione], the “TPM3-TRKA degradation” value at TPM3-TRKA fusion protein [3] was “exhibited the activities to induce TPM3-TRKA degradation”. In the series on KM12 cells (Table 3), the IC50 turned out to be 8.9 nM.
For the compound `O=C1CCC(N2C(=O)c3ccc(NCC(=O)N4CCN(c5cccc(-c6cnc7ccc(N8CCC[C@@H]8c8cccc(F)c8)nn67)n5)CC4)cc3C2=O)C(=O)N1` (stereo partly drawn) [TR-123, 2-(2,6-dioxopiperidin-3-yl)-5-((2-(4-(6-(6-((R)-2-(3-fluorophenyl)pyrrolidin-1-yl)imidazo[1,2-b]pyridazin-3-yl)pyridin-2-yl)piperazin-1-yl)-2-oxoethyl)amino)isoindoline-1,3-dione], the plasma exposure entry in series [1] was “significant plasma exposure”. The “TPM3-TRKA degradation” value at TPM3-TRKA fusion protein [3] is recorded as “exhibited the activities to induce TPM3-TRKA degradation”. Moreover, the TRKA protein levels entry on wild type TRKA protein was “reduced TRKA protein levels in a concentration-dependent manner; also recorded: significant degradation of full-length TRKA”; at TPM3-TRKA fusion protein [2], “reduced TRKA protein levels in a concentration-dependent manner”. Also, the “TRKA degradation in combination with MG-132, Bortezomib, MLN4924 or Pomalidomide” value at wild type TRKA protein (single dose (FIG. 9B)) was “compromised”. The “TRKA degradation in combination with MG-132, Bortezomib or MLN4924” value at TPM3-TRKA fusion protein [2] (single dose (FIG. 9A)) is given as “compromised”. In addition, in the series with KM12 cells (Table 3), the IC50 was 1.7 nM.
